According to paper PMC2981624 (Chemical research in toxicology, 2010):
“Also recorded” adds a separate entry of the source. Read-outs that look alike come from different tables or passages of the source.

Columns and labels:
[1] = tested on: Salmonella typhimurium strain TA98; conditions: for concentration dependence of mutagenicity (revertants/plate): 0.1-100 μM
[2] = tested on: Salmonella typhimurium strain TA100; conditions: cited from earlier work
[3] = tested on: primary normal human lung cells; conditions: 0.1 to 10 μM; cited from earlier work
[4] = tested on: Salmonella typhimurium strain TA98; conditions: cited from earlier work
[5] = tested on: Salmonella typhimurium strain TA100; conditions: 10 and 100 μM (Figure 1)
[6] = tested on: lung adenoma; conditions: cited from earlier work
[7] = 10 μM, 50 pmol 1A1 Supersomes, presence of NADPH
[8] = 10 μM, 50 pmol recombinant 2A13, presence of NADPH
[9] = 0.5 mg human lung microsomes, presence of NADPH
[10] = 0.5 mg human lung microsomes, presence of NADPH, equal concentrations
[11] = 2 mg rat liver S9, presence of NADPH

SMILES: Cc1c[nH]c2ccccc12 [3MI, 3-methylindole]
- mutagenicity (revertants/plate) [1, 7]: statistically significant increases in mutagenicity
- mutagenicity (number of mutants) ([1]; 10 μM, 50 pmol purified 2F3, presence of NADPH): significant increase in the number of mutants
- mutagenicity (revertants/plate) [1, 8]: statistically significant increases in the number of revertants per plate; also recorded: highest levels of mutagenicity
- cytotoxicity to bacteria (density of background lawn) ([1]; 100 μM, 0.5 mg human lung microsomes): cytotoxic
- concentration dependence of mutagenicity (revertants/plate) [1, 9]: increasing mutagenicity up through the 10 μM concentration, but lower revertants/plate with the highest concentration (100 μM)
- mutagenicity compared to BaP [1, 10]: more mutagenic than BaP was at the 1.0 μM (p=0.006) and 10 μM (p=0.005) concentrations, although not at the 0.1 μM (p=0.1) or 100 μM (p=0.9) concentrations
- mutagenicity compared to NNK [1, 10]: significantly more mutagenic than NNK was at the 0.1 μM (p=0.05), 1.0 μM (p=0.002), and 10 μM (p=0.007) concentrations, although not at the 100 μM (p=0.8) concentration
- mutagenicity (revertants/plate) ([1]; 2 mg human liver S9, presence of NADPH): Neither incubation of 3MI with Salmonella typhimurium strain TA98 and 2 mg human liver S9, or 2 mg rat liver S9 was mutagenic; also recorded: failed to produce 3MI-mediated mutagenesis
- mutagenicity (revertants/plate) [1, 11]: Neither incubation of 3MI with Salmonella typhimurium strain TA98 and 2 mg human liver S9, or 2 mg rat liver S9 was mutagenic; also recorded: failed to produce 3MI-mediated mutagenesis
- mutagenicity ([2]; rat liver S9): not mutagenic
- induction of markers of carcinogenesis [3]: induce markers of carcinogenesis, including DNA damage and p53 nuclear localization
- mutagenicity ([4]; purified CYP2F3): mutagenic
- mutagenicity ([4]; rat liver S9 fractions): not mutagenic
- mutagenicity (revertants/plate) [5, 9]: failed to increase mutagenesis at any concentration
- mutagenicity (revertants/plate) [5, 11]: failed to increase mutagenesis at any concentration

SMILES: COc1c2occc2cc2ccc(=O)oc12 [8-MOP, 8-methoxypsoralen]
- chemopreventive effect [6]: chemopreventive effect

SMILES: Nn1nnc2ccccc21 [ABT, 1-aminobenzotriazole, reference compound]
- mutagenicity of inhibitor alone ([1]; 0.5 mM ABT alone, 0.5 mg human lung microsomes): did not prove to be mutagenic
- effect on 3MI-mediated mutagenesis ([1]; 0.5 mM ABT with 100 μM 3MI, 0.5 mg human lung microsomes, presence of NADPH): completely inhibited the mutagenesis
- effect on B(a)P-mediated mutagenesis ([1]; 0.5 mM ABT with 100 μM B(a)P, 0.5 mg human lung microsomes, presence of NADPH): completely inhibited the mutagenesis
- effect on NNK-mediated mutagenesis ([1]; 0.5 mM ABT with 100 μM NNK, 0.5 mg human lung microsomes, presence of NADPH): completely inhibited the mutagenesis

SMILES: CN(CCCC(=O)c1cccnc1)N=O [NNK, 4-(methylnitrosamino)-1-(3-pyridyl)-1-butanone, reference compound]
- mutagenicity (revertants/plate) [1, 7]: did not result in an increased number of revertants
- mutagenicity (revertants/plate) [1, 8]: statistically significant increases in the number of revertants per plate
- concentration dependence of mutagenicity (revertants/plate) [1, 9]: mutagenicity increased in a concentration-dependent manner up through the 100 μM concentration
- base pair substitution mutations [2]: does not cause base pair substitution mutations
- mutagenicity (revertants/plate) [5, 9]: failed to increase mutagenesis at any concentration
- mutagenicity (revertants/plate) [5, 11]: failed to increase mutagenesis at any concentration
